Source: patent publication US10392368B2, “Pyrazolo and triazolo bicyclic compounds as JAK kinase inhibitors” (THERAVANCE BIOPHARMA R&D IP, LLC, priority 2017, dated 2019)

Columns and labels:
[1] = molecular target: T1, JAK3 (Homo sapiens, UniProt P52333); assay: Biochemical JAK3 kinase assay (LanthaScreen); design: GST; purchased Life Technologies; conditions: for Ki: read-out: JAK 3 (pKi) (converted); for JAK3 (pKi)-JAK1 (pKi): selectivity JAK3 over JAK1, difference of pKi
T1 sequence (P52333 1-1124): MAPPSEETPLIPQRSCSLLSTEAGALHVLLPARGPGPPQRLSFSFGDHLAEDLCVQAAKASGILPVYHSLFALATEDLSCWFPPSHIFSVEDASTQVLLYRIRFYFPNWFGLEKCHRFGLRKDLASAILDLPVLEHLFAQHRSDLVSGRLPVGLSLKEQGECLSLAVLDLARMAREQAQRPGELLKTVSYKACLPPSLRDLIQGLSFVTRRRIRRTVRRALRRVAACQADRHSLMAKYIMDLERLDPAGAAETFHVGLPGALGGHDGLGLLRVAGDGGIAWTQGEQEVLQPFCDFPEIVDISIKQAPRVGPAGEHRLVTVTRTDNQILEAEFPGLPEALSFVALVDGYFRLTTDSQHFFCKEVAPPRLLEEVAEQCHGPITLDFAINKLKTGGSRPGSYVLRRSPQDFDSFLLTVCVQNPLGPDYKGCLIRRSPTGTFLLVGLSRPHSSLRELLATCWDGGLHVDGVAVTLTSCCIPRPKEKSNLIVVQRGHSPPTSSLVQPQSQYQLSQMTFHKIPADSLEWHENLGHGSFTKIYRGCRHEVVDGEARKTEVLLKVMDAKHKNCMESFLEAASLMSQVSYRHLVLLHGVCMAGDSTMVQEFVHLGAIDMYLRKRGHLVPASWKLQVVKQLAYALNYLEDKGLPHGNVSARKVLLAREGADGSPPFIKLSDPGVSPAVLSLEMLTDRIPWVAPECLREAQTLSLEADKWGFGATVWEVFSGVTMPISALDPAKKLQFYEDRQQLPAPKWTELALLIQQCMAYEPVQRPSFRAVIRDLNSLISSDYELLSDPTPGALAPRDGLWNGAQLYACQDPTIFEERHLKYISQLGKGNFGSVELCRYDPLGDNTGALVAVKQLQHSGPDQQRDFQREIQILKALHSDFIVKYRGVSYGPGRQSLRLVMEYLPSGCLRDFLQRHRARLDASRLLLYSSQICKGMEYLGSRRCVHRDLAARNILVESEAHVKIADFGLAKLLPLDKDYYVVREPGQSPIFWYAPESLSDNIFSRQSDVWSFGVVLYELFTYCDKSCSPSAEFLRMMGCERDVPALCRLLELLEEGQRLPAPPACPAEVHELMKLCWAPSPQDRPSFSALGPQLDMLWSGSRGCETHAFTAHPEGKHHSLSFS
In short: (§1)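 TR-FRET readout (520/495 nm) using Tb-labelled pTyr701 antibody after EDTA stop, following 1 h ATP-started phosphorylation of GFP-STAT1 by recombinant GST-JAK. Compounds preincubated 1 h with enzyme and substrate; pIC50 from 4-parameter fit, Cheng-Prusoff gives pKi.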

[2] = molecular target: T2, JAK1 (Homo sapiens, UniProt P23458); assay: Biochemical JAK1 kinase assay (LanthaScreen); conditions: for Ki: read-out: JAK 1 (pKi) (converted)
T2 construct: GST; purchased Life Technologies
T2 sequence (P23458 whole entry): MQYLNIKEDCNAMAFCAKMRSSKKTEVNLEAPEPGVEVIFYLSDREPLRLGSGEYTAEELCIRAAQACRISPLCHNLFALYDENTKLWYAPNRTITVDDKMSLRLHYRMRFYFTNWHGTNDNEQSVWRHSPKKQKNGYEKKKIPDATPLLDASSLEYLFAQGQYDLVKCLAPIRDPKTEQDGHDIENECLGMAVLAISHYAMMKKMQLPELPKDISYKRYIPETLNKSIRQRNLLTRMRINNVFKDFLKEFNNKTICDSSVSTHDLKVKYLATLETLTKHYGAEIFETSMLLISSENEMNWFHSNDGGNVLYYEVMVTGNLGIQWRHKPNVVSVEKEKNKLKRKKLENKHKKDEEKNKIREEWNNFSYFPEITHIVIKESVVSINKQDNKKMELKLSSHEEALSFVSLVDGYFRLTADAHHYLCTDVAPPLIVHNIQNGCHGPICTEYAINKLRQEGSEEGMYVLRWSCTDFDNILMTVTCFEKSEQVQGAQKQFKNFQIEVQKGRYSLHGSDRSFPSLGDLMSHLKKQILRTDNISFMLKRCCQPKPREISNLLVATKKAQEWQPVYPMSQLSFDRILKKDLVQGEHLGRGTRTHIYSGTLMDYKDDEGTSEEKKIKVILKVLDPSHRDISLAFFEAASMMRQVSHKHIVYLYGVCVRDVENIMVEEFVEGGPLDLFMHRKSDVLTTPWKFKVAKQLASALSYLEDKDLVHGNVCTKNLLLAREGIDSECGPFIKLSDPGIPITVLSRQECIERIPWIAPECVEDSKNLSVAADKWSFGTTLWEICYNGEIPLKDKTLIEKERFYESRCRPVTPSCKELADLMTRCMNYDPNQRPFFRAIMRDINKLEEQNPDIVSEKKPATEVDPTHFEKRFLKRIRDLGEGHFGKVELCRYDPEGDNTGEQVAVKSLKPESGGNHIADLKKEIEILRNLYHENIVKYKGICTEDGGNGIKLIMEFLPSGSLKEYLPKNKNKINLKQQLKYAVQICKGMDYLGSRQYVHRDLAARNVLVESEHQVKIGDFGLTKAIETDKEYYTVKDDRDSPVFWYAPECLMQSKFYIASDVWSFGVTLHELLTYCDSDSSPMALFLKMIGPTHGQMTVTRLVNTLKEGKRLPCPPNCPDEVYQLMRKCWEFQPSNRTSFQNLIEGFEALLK
In short: as §1

[3] = molecular target: T3, JAK2 (Homo sapiens, UniProt O60674); assay: Biochemical JAK2 kinase assay (LanthaScreen); conditions: for Ki: read-out: JAK 2 (pKi) (converted)
T3 construct: GST; purchased Life Technologies
T3 sequence (O60674 whole entry): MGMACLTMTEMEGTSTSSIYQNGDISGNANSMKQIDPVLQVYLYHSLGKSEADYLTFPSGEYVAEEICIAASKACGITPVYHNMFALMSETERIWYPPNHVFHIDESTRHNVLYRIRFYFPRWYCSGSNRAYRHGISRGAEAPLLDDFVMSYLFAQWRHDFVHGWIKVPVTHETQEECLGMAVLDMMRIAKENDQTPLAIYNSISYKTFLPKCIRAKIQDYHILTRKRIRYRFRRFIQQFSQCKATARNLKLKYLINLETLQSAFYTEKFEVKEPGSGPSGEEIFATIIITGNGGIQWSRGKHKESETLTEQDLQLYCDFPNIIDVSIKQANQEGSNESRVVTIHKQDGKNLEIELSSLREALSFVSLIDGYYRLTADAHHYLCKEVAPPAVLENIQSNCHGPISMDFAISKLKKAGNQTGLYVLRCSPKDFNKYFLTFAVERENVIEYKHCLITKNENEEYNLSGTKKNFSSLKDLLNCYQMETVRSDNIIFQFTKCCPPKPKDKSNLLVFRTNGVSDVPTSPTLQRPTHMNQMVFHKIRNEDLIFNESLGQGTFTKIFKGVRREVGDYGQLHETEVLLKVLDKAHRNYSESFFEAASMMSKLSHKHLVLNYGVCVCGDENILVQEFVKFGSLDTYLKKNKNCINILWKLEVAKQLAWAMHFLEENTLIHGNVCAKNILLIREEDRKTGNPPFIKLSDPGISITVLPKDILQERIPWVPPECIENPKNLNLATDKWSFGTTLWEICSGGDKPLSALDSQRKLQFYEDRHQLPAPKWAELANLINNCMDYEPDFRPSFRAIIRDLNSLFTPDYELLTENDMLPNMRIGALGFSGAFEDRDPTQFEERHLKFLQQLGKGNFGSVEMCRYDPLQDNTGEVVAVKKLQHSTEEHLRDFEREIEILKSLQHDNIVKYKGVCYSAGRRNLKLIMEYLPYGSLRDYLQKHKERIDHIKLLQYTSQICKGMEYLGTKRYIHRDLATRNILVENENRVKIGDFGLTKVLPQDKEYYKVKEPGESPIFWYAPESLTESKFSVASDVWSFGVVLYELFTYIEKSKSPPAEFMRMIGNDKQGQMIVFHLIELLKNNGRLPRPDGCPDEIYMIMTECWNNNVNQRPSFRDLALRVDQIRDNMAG
In short: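 pKi values derive from pIC50 via Cheng-Prusoff, with IC50 from a 4-parameter fit of percent-inhibition TR-FRET data using Tb-anti-pSTAT1 (pTyr701) detection. Compound, GST-JAK2 and GFP-STAT1 substrate were pre-incubated 1 h, then ATP started a 1 h ambient reaction (HEPES pH 7.5, 10 mM MgCl2, 1% DMSO).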

[4] = system: IL-2 stimulated pSTAT5 in Tall-1 T cells; assay: Cellular JAK3 potency assay: inhibition of IL-2 stimulated pSTAT5 in Tall-1 T cells; format: cell-based, human; conditions: for IC50: Homo sapiens, TALL-1, IL-2 stimulated pSTAT5, Tall-1 T cells, read-out: Tall-1 (pIC50) (converted); for Tall-1 (pIC50): IL-2 stimulated pSTAT5, Tall-1 T cells
In short: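 Inhibition of IL-2-induced pSTAT5 was quantified by AlphaLisa in Tall-1 cell lysates. Compound exposure lasted 1 h before 30 min stimulation with 300 ng/ml IL-2 final.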

[5] = molecular target: T4, Tyk2 (Homo sapiens, UniProt P29597); assay: Biochemical Tyk2 kinase assay (LanthaScreen); conditions: for Ki: read-out: Tyk 2 (pKi) (converted)
T4 construct: GST; purchased Life Technologies
T4 sequence (P29597 whole entry): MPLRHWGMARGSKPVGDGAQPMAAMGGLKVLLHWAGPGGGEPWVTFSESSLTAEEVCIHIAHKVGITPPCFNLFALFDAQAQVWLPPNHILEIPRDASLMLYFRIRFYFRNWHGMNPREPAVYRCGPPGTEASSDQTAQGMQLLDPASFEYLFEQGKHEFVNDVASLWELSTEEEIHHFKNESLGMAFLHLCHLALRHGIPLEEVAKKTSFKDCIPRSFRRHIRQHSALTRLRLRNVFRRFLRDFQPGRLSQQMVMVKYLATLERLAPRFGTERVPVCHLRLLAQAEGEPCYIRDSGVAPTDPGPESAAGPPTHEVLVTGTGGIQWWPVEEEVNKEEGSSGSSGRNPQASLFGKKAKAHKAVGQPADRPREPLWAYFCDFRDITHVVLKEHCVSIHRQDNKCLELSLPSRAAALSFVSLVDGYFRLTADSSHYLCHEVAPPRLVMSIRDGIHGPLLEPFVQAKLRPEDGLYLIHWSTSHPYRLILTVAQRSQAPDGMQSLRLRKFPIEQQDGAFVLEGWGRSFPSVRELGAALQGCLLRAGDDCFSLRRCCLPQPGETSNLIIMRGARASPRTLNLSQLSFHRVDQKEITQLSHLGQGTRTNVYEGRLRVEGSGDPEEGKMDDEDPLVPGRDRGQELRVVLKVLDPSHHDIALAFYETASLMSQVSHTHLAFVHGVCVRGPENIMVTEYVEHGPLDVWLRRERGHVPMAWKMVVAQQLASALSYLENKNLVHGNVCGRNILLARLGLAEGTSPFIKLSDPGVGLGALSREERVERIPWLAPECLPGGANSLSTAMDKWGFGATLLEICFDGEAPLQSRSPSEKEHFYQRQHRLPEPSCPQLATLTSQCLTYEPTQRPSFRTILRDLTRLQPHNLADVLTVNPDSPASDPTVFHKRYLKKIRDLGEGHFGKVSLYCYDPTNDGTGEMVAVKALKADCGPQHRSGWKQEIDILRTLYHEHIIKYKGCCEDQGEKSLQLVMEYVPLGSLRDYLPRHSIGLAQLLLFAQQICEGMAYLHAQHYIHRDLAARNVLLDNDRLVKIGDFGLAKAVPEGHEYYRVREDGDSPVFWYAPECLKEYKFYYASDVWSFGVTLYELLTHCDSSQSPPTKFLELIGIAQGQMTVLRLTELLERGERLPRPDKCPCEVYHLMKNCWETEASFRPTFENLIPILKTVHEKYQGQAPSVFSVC
In short: as §1

Row | SMILES | Ki [1] | JAK3 (pKi)-JAK1 (pKi) [1] | Ki [2] | Ki [3] | IC50 [4] | Ki [5] | JAK 3 (pKi) [1] | JAK 1 (pKi) [2] | JAK 2 (pKi) [3] | Tall-1 (pIC50) [4] | Tyk 2 (pKi) [5]
1 | C=CC(=O)N1CC(C#N)(C(=O)Nc2cc(-c3ccc(O)cc3)cc3[nH]ncc23)C1 [Compound 12-47] | 0.1 to 1 nM | A (a value of 3 or above) | > 100 nM | > 100 nM | 31.6 to 200 nM | > 100 nM |  |  |  |  | 
2 | C=CC(=O)N1CC(F)(C(=O)Nc2cc(-c3ccc(O)cc3)cc3[nH]ncc23)C1 [Compound 12-48] | 0.1 to 1 nM | A (a value of 3 or above) | > 100 nM | > 100 nM | < 31.6 nM | > 100 nM |  |  |  |  | 
3 | CN(C)C/C=C/C(=O)N1CC(S(=O)(=O)c2cc(-c3ccc(O)cc3)cc3[nH]ncc23)C1 [Compound 12-49] | 0.1 to 1 nM | A (a value of 3 or above) | > 100 nM | > 100 nM | 200 to 1000 nM | > 100 nM |  |  |  |  | 
4 | C=CC(=O)N1CC(S(=O)(=O)c2cc(-c3ccc(O)cc3)cc3[nH]ncc23)C1 [Compound 12-50] | < 0.1 nM | A (a value of 3 or above) | > 100 nM | > 100 nM | 31.6 to 200 nM | > 100 nM |  |  |  |  | 
5 | CN(C)C/C=C/C(=O)N1CC(Sc2cc(-c3ccc(O)cc3)cc3[nH]ncc23)C1 [Compound 12-51] |  | A (a value of 3 or above) |  |  |  |  | A (a pKi value≥10 (Ki≤0.1 nM)) | D (a pKi value between 7 and 8 (Ki between 100 nM and 10 nM)) | D (a pKi value between 7 and 8 (Ki between 100 nM and 10 nM)) | B (a pIC50 value between 6.7 (included) and 7.5 (IC50 between 200 nM and 32 nM)) | E (a pKi value of 7 or below (Ki of 100 nM or above))
6 | CN(C)C/C=C/C(=O)N1CC2(CCC2Oc2cc(-c3ccc(O)cc3)cc3[nH]ncc23)C1 (stereo not drawn) [Compound 12-53] | 0.1 to 1 nM | B (a value of 2.3 to 3) | > 100 nM | 1 to 10 nM | < 31.6 nM | > 100 nM |  |  |  |  | 
7 | C=CC(=O)N1CC2(CCC2Oc2cc(-c3ccc(O)cc3)cc3[nH]ncc23)C1 (stereo not drawn) [Compound 12-54] | 0.1 to 1 nM | B (a value of 2.3 to 3) | > 100 nM | 10 to 100 nM | < 31.6 nM | > 100 nM |  |  |  |  | 
8 | C=CC(=O)N1CCC[C@@H](C(=O)Nc2cc(-c3ccc(O)cc3)cc3[nH]ncc23)[C@H]1C [Compound 12-57] | 0.1 to 1 nM | A (a value of 3 or above) | > 100 nM | 10 to 100 nM | 31.6 to 200 nM | > 100 nM |  |  |  |  | 
9 | C=CC(=O)N1CCC(F)(C(=O)Nc2cc(-c3ccc(O)cc3)cc3[nH]ncc23)CC1 [Compound 12-58] | < 0.1 nM | A (a value of 3 or above) | > 100 nM | 10 to 100 nM | 31.6 to 200 nM | > 100 nM |  |  |  |  | 
10 | C=CC(=O)N1C[C@H](C(=O)Nc2cc(-c3ccc(O)cc3)cc3[nH]ncc23)OC[C@@H]1C [Compound 12-60] | 0.1 to 1 nM | A (a value of 3 or above) | > 100 nM | > 100 nM | 31.6 to 200 nM | > 100 nM |  |  |  |  | 
11 | C=CC(=O)N1C[C@@H](C)O[C@@H](C(=O)Nc2cc(-c3ccc(O)cc3)cc3[nH]ncc23)C1 [Compound 12-61] | < 0.1 nM | A (a value of 3 or above) | > 100 nM | > 100 nM | 31.6 to 200 nM | > 100 nM |  |  |  |  | 
12 | C=CC(=O)N1CCOC[C@H]1C(=O)Nc1cc(-c2ccc(O)cc2)cc2[nH]ncc12 [Compound 12-63] | 0.1 to 1 nM | A (a value of 3 or above) | > 100 nM | > 100 nM | 31.6 to 200 nM | > 100 nM |  |  |  |  | 
13 | C=CC(=O)N1CCSC[C@H]1C(=O)Nc1cc(-c2ccc(O)cc2)cc2[nH]ncc12 [Compound 12-64] | < 0.1 nM | A (a value of 3 or above) | > 100 nM | > 100 nM | < 31.6 nM | > 100 nM |  |  |  |  | 
14 | CN(C)C/C=C/C(=O)N1CCSC[C@@H]1C(=O)Nc1cc(-c2ccc(O)cc2)cc2[nH]ncc12 [Compound 12-65] | 0.1 to 1 nM | A (a value of 3 or above) | > 100 nM | > 100 nM | 200 to 1000 nM | > 100 nM |  |  |  |  | 
15 | C=CC(=O)N1CCSCC1C(=O)Nc1cc(-c2ccc(O)cc2)cc2[nH]ncc12 (stereo not drawn) [Compound 12-66] | 0.1 to 1 nM | A (a value of 3 or above) | > 100 nM | > 100 nM | 31.6 to 200 nM | > 100 nM |  |  |  |  | 
16 | CN(C)C/C=C/C(=O)N1CC(F)(C(=O)Nc2cc(-c3ccc(O)cc3)cc3[nH]ncc23)C1 [Compound 12-67] | 0.1 to 1 nM | A (a value of 3 or above) | > 100 nM | > 100 nM | 31.6 to 200 nM | > 100 nM |  |  |  |  | 
17 | C=CC(=O)N1CC(C)(C(=O)Nc2cc(-c3ccc(O)cc3)cc3[nH]ncc23)C1 [Compound 12-68] | 0.1 to 1 nM | A (a value of 3 or above) | > 100 nM | > 100 nM | 200 to 1000 nM | > 100 nM |  |  |  |  | 
18 | C=CC(=O)N1CC(CSc2cc(-c3ccc(O)c(Cl)c3)nc3[nH]ncc23)C1 [Compound 13-1] |  | A (a value of 3 or above) |  |  |  |  | B (a pKi value between 9 and 10 (Ki between 1 nM and 0.1 nM)) | E (a pKi value of 7 or below (Ki of 100 nM or above)) | E (a pKi value of 7 or below (Ki of 100 nM or above)) | B (a pIC50 value between 6.7 (included) and 7.5 (IC50 between 200 nM and 32 nM)) | E (a pKi value of 7 or below (Ki of 100 nM or above))
19 | C=CC(=O)N1CCO[C@@H](C(=O)Nc2cc(-c3ccc(O)c(Cl)c3)cc3[nH]ncc23)C1 [Compound 13-2] |  | A (a value of 3 or above) |  |  |  |  | B (a pKi value between 9 and 10 (Ki between 1 nM and 0.1 nM)) | E (a pKi value of 7 or below (Ki of 100 nM or above)) | E (a pKi value of 7 or below (Ki of 100 nM or above)) | A (a pIC50 value≥7.5 (IC50≤32 nM)) | E (a pKi value of 7 or below (Ki of 100 nM or above))
20 | CN(C)C/C=C/C(=O)N1CC(CSc2cc(-c3ccc(O)cc3)cc3[nH]ncc23)C1 [Compound 13-4] |  | A (a value of 3 or above) |  |  |  |  | A (a pKi value≥10 (Ki≤0.1 nM)) | E (a pKi value of 7 or below (Ki of 100 nM or above)) | D (a pKi value between 7 and 8 (Ki between 100 nM and 10 nM)) | B (a pIC50 value between 6.7 (included) and 7.5 (IC50 between 200 nM and 32 nM)) | E (a pKi value of 7 or below (Ki of 100 nM or above))
